Measurements published in patent US20210322417A1, “GASTRIC CANCER TREATMENTS” (The Jackson Laboratory, priority 2018, published 2021).

Key:
[1] = test system: PTEN null OE19 cells; test: CellTiter-Glo cell viability assay, PTEN null OE19; assay type: cell-based, human; conditions: 6 days
Experimental: (§3) Then N87 and OE19 cells were infected with the corresponding viruses and the Lapatinib resistance was examined by treating the cells with indicated doses of Lapatinib for 6 days. Cell viability assay was performed as described below at the end of treatment.
(§4) For the cell viability assays, 4,000 cells/each well in a 96-well plate were treated with indicated drugs for 6 days and cell viabilities were measured using the CellTiter-Glo® luminescent cell viability assay kit according to the manufacturer's instructions (Promega). The luminescence intensity was measured using a multi-label plate reader (SpectraMax M5, Molecular Devices). The cell viabilities were calculated as relative values compared to the untreated controls.

[2] = test system: CSK null OE19 cells; test: CellTiter-Glo cell viability assay, CSK null OE19; assay type: cell-based, human; conditions: 6 days
Experimental: as §3, §4

[3] = test system: OE19 cells transduced with non-targeting gRNA; test: CellTiter-Glo cell viability assay, control OE19; assay type: cell-based, human; conditions: indicated doses of the agent in combination with 0.05 μM Lapatinib, 6 days
Source text: Viral particles were generated as described above.

[4] = test system: PTEN null OE19 cells; test: Caspase-Glo 3/7 apoptosis assay, PTEN null cells; assay type: cell-based, human; conditions: Lapatinib 48 h treatment
Experimental: (§1) We examined apoptosis induced by Lapatinib treatment in CSK or PTEN null cells as well as the control cells by measuring caspase-3/7 activation (Caspase-Glo assay).
(§2) Caspase activity was detected by using Caspase-Glo 3/7 assay kit (Promega). Briefly. The GC cells were seeded in 96-well white luminometer assay plates at a density of 4,000 cells per well and incubated at 37° C. Cells were treated with Lapatinib for 48 h, 100 ul caspase 3/7 reagents were added to each well and incubated for 1 h on rotary shaker at room temperature. The luminescence intensity was measured using a multi-label plate reader (SpectraMax M5, Molecular Devices).

[5] = test system: OE19 cells transduced with non-targeting gRNA; test: Caspase-Glo 3/7 apoptosis assay, control cells; assay type: cell-based, human; conditions: Lapatinib 48 h treatment
Experimental: as §1, §2

[6] = test system: N87-PTEN−/− tumors; test: Xenograft tumor model, N87-PTEN−/−; conditions: lapatinib dosing test, three weeks of treatment, compared to N87-WT
[7] = test system: N87-WT tumors; test: Xenograft tumor model, N87-WT; assay type: in vivo, mice; conditions: lapatinib dosing test, three weeks of treatment
Source text: Tumors were induced by injecting N87-WT. […] Drug treatment was initiated when tumors reached a volume of 150-250 mm^3. Mice were randomly divided into seven treatment groups including 8-10 mice in each group: 1) vehicle only, 2) lapatinib only, 3) lapatinib+trametinib, 4) lapatinib+copanlisib, 5) trametinib+copanlisib, 6) lapatinib+trametinib+copanlisib, and 7) 5-FU.

[8] = test system: CSK null OE19 cells; test: Caspase-Glo 3/7 apoptosis assay, CSK null cells; assay type: cell-based, human; conditions: Lapatinib 48 h treatment
Experimental: as §1, §2

[9] = test system: HER2-amplified GC; conditions: HER2-positive GC patients, clinical trial data; cited from earlier work
[10] = test system: N87-CSK−/− tumors; conditions: lapatinib dosing test, three weeks of treatment; N87-CSK−/− xenograft, compared to N87-WT
[11] = AZD0530 at highest concentration (1 μM) in combination with 0.05 μM Lapatinib
[12] = 0.1 μM of the agent in combination with 0.05 μM Lapatinib
[13] = indicated doses of the agent in combination with 0.05 μM Lapatinib

CN1CCN(CCOc2cc(OC3CCOCC3)c3c(Nc4c(Cl)ccc5c4OCO5)ncnc3c2)CC1 [AZD0530, Saracatinib]
cells survived [1, 11]: 42.49±2.54%
cells survived [2, 11]: 9.15±0.88%

COc1c(OCCCN2CCOCC2)ccc2c1N=C(NC(=O)c1cnc(N)nc1)N1CCN=C21 [Copanlisib]
effect on cell growth [1, 12]: significantly inhibited the cell growth, but not completely
effect on cell growth/viability [1, 13]: inhibited the cell growth
effect on cell growth [2, 12]: significantly inhibited the cell growth, but not completely
effect on cell growth/viability [2, 13]: inhibited the cell growth
effect on cell growth [3]: inhibited the cell growth

CS(=O)(=O)CCNCc1ccc(-c2ccc3ncnc(Nc4ccc(OCc5cccc(F)c5)c(Cl)c4)c3c2)o1 [Lapatinib]
fold of caspase-3/7 activity compared with vehicle treated cells [4]: 1.50±0.10 fold
fold of caspase-3/7 activity compared with vehicle treated cells [5]: 3.79±0.16 fold
tumor sensitivity to treatment [6]: resistant to lapatinib treatment
tumor sensitivity to treatment [7]: sensitive to lapatinib treatment
effect on cell growth ([1]; 0.05 μM Lapatinib alone): could not inhibit the growth
fold of caspase-3/7 activity compared with vehicle treated cells [8]: 1.55±0.16 fold
survival [9]: failed to improve survival
tumor sensitivity to treatment [10]: relatively insensitive to lapatinib
effect on cell growth ([2]; 0.05 μM Lapatinib alone): could not inhibit the growth
